Values of other authors, collected in patent US20150366189A1, “DRY MELT COATING PROCESS AND FORMULATION FOR VOLATILE COMPOUNDS” (AGROFRISH INC., priority 2013, published 2015).

Settings: enclosed space

In the case of `CC1=CC1` [Experiment 1-MCP, 1-Methylcyclopropene], the “concentration threshold above which 1-MCP is flammable” value is given as > 13,300 ppm.
